Laboratory results published in patent US20250109141A1, “BRD4 PROTEIN DEGRADER COMPOUND, AND PREPARATION METHOD AND USE THEREOF” (Miracure Biotechnology Limited, priority 2023, published 2025).
Read-outs that look alike come from different tables or passages of the source.

Columns and labels:
22RV1 = test: Cell proliferation assay (CellTiterGlo, 72 h), 22RV1; assay type: cell-based; settings: Homo sapiens, read-out: 22Rv1 ATP average IC50
Description: All incubations were performed at 37° C. in a humidified carbon dioxide incubator.
(§1) The cells were seeded in a 96-well plate (white wall/transparent bottom) at 5000 cells/well and cultured overnight.
(§2) On day 2, A stock solution of the compound at a concentration of 10 mM was subjected to an 8-fold serial dilution to obtain 8 concentration points. 2 μL of the compound solution at each concentration point was added to 98 μL of fresh medium, and the mixture was mixed homogeneously. Then, 5 μL of the compound solution diluted in the medium at each concentration point was added to 100 μL of overnight medium containing the cells, and 2 replicates were set for each concentration. The mixture was cultured for 72 h.
(§3) After 72 h of compound treatment, the plate was equilibrated to room temperature, 100 μL of CellTiterGlo (Promega) was added. The mixture was mixed homogeneously for 2 min, left to stand at room temperature for 10 min, and then read for luminescence values on a SpectraMax M5 microplate reader to evaluate cell viability. The positive control was 1% Tween-20 and the negative control was 0.1% DMSO. IC50 was generated by 4-parameter non-linear regression fitting in GraphPad Prism.

LNCaP = test: Cell proliferation assay (CellTiterGlo, 72 h), LNCaP; assay type: cell-based; settings: Homo sapiens, LNCap cells, 72 h compound treatment, read-out: LNCap ATP average IC50
Description: The cell line used was 22RV1 or LNCaP, and the medium was RPMI-1640 containing 10% FBS and antibiotics. All incubations were performed at 37° C. in a humidified carbon dioxide incubator.
On day 1, cells were digested with 0.25% trypsin (containing EDTA) and collected by centrifugation.
as §1, §2, §3

BRD4 [1] = molecular target: T1, BRD4 (Homo sapiens, UniProt O60885); test: BRD4 degradation assay (Western-blot / Simple Western) in 22RV1; settings: 22RV1 cells, target content as percentage of control (DMSO = 100%)
BRD4 [2] = molecular target: T1, BRD4; test: BRD4 degradation assay (Western-blot / Simple Western) in LNCap; assay type: cell-based; settings: LNCap cells, target content as percentage of control (DMSO = 100%)
Description: The mixture was centrifuged for 5 min. […] The PVDF membrane was cut and labeled. […] Images were acquired and analyzed.

[3] = 22Rv1 cells, 72 h compound treatment, CellTiterGlo

Cc1sc2c(c1C)C(c1ccc(/C=C/CN)cc1)=N[C@@H](Cc1nccs1)c1nnc(C)n1-2 [Compound 9136] was tested, and the IC50 (22RV1; 22Rv1, 72 h) was under 50 nM, the IC50 (LNCaP) was under 50 nM and the “BRD4 degradation of 22RV1 (200 nM 5 h)” value (BRD4 [1]) was “C (50%<C<80)”.
Cc1sc2c(c1C)C(c1ccc(/C=C/CN)cc1)=N[C@@H](CC(=O)OC1(C)CC1)c1nnc(C)n1-2 [Compound 9137] was tested, and the IC50 (22RV1; [3]) was under 50 nM, the IC50 (LNCaP) was under 50 nM and the “BRD4 degradation of 22RV1 (200 nM 5 h)” value (BRD4 [1]) was “B (20%<B<50%)”.
Cc1sc2c(c1C)C(c1ccc(C3CC3CN)cc1)=N[C@@H](CC(=O)OC(C)(C)C)c1nnc(C)n1-2 (some centres unmarked) [Compound 9138] showed an IC50 (22RV1; [3]) of over 500 nM and an IC50 (LNCaP) of over 500 nM.
Cc1noc2c1-c1ccccc1C(c1ccc(C#CCN)cc1)=N[C@H]2Cc1nccs1 [Compound 9141] was tested, and the IC50 (22RV1; [3]) was over 500 nM and the IC50 (LNCaP) was over 500 nM.
CC(=O)ONC/C=C/c1ccc(C2=N[C@@H](CC(=O)OC(C)(C)C)c3nnc(C)n3-c3sc(C)c(C)c32)cc1 [Compound 9144] was tested, and the IC50 (22RV1; [3]) was under 50 nM and the IC50 (LNCaP) was under 50 nM.
In the case of Cc1sc2c(c1C)C(c1ccc(C3CC3/C=N/O)cc1)=N[C@@H](CC(=O)OC(C)(C)C)c1nnc(C)n1-2 (some centres unmarked) [Compound 9148], the IC50 (22RV1; [3]) is reported as 50 to 200 nM, the IC50 (LNCaP) is reported as 50 to 200 nM and the “BRD4 degradation of 22RV1 (200 nM 5 h)” value (BRD4 [1]) is reported as “C (50%<C<80)”.
COC(=O)C[C@@H]1N=C(c2ccc(Cl)cc2)c2c(sc(C(=O)NCCOCCNC(=O)C[C@@H]3N=C(c4ccc(C#CCN)cc4)c4c(sc(C)c4C)-n4c(C)nnc43)c2C)-n2c(C)nnc21 [Compound 9157] showed an IC50 (22RV1; [3]) of 200 to 500 nM and an IC50 (LNCaP) of 200 to 500 nM.
For COc1ccc2c(c1)C(c1ccc(C#CCNC(=N)N)cc1)=N[C@@H](CC(=O)OC(C)(C)C)c1nnc(C)n1-2 [Compound 9159], the IC50 (22RV1; 22Rv1, 72 h) was over 500 nM and the IC50 (LNCaP) was over 500 nM.
With Cc1sc2c(c1C)C(c1ccc(C#CCN)cc1)=N[C@@H](Cc1nnc(C(C)C)o1)c1nnc(C)n1-2 [Compound 9160] the IC50 (22RV1; 22Rv1, 72 h) was under 50 nM, the IC50 (LNCaP) was under 50 nM and the “BRD4 degradation of 22RV1 (200 nM 5 h)” value (BRD4 [1]) was “C (50%<C<80)”.
Cc1sc2c(c1C)C(c1ccc(/C=C/CNO)cc1)=N[C@@H](Cc1nccs1)c1nnc(C)n1-2 [Compound 9166] was tested, and the IC50 (22RV1; [3]) was under 50 nM, the IC50 (LNCaP) was under 50 nM and the “BRD4 degradation of 22RV1 (200 nM 5 h)” value (BRD4 [1]) was “A (A<20%)”.
For COc1ccc2c(c1)C(c1ccc(/C=C/CNO)cc1)=N[C@@H](Cc1nccs1)c1nnc(C)n1-2.Cl [Compound 9167], the IC50 (22RV1; 22Rv1, 72 h) was under 50 nM, the IC50 (LNCaP) was under 50 nM and the “BRD4 degradation of LNCap (200 nM 5 h)” value (BRD4 [2]) was “A (A<20%)”.
Work on Cc1sc2c(c1C)C(c1ccc(/C=C/CN)cc1)=N[C@@H](Cc1nnc(C(C)C)o1)c1nnc(C)n1-2 [Compound 9168] yielded an IC50 (22RV1; [3]) of under 50 nM and an IC50 (LNCaP) of under 50 nM.
For Cc1sc2c(c1C)C(c1ccc(C#CCNO)cc1)=N[C@@H](Cc1nccs1)c1nnc(C)n1-2.Cl [Compound 9173], the IC50 (22RV1; [3]) was under 50 nM, the IC50 (LNCaP) was under 50 nM and the “BRD4 degradation of 22RV1 (200 nM 5 h)” value (BRD4 [1]) was “C (50%<C<80)”.
For Cc1sc2c(c1C)C(c1ccc(/C=C/CNO)cc1)=N[C@@H](CC(=O)OC1(C)CC1)c1nnc(C)n1-2 [Compound 9184], the IC50 (22RV1; [3]) was under 50 nM, the IC50 (LNCaP) was under 50 nM and the “BRD4 degradation of 22RV1 (200 nM 5 h)” value (BRD4 [1]) was “A (A<20%)”.
Cc1sc2c(c1C)C(c1ccc(/C=C/CNS(C)(=O)=O)cc1)=N[C@@H](CC(=O)OC(C)(C)C)c1nnc(C)n1-2 [Compound 9200] was tested, and the IC50 (22RV1; [3]) was 50 to 200 nM and the IC50 (LNCaP) was 50 to 200 nM.
For COc1ccc2c(c1)C(c1ccc3c(c1)NC(=O)CC3)=N[C@@H](CC(=O)OC(C)(C)C)c1nnc(C)n1-2 [Compound 9211], the IC50 (22RV1; 22Rv1, 72 h) was over 500 nM and the IC50 (LNCaP) was over 500 nM.
COC(=O)C[C@@H]1N=C(c2ccc(/C=C/CNO)c(F)c2)c2cc(OC)ccc2-n2c(C)nnc21 [Compound 9213] showed an IC50 (22RV1; 22Rv1, 72 h) of under 50 nM and an IC50 (LNCaP) of under 50 nM.
Molecule COc1ccc2c(c1)C(c1ccc(/C=C/CNO)c(F)c1)=N[C@@H](CC(=O)O)c1nnc(C)n1-2 [Compound 9214] has an IC50 (22RV1; 22Rv1, 72 h) of over 500 nM and an IC50 (LNCaP) of over 500 nM.
COc1ccc2c(c1)C(c1ccc(/C=C/C=N\O)cc1)=N[C@@H](CC(=O)OC(C)(C)C)c1nnc(C)n1-2 [Compound 9221] gave an IC50 (22RV1; 22Rv1, 72 h) of over 500 nM and an IC50 (LNCaP) of 200 to 500 nM.
COc1ccc2c(c1)C(c1ccc(/C=C/C=N/O)cc1)=N[C@@H](CC(=O)OC(C)(C)C)c1nnc(C)n1-2 [Compound 9222] was tested, and the IC50 (22RV1; 22Rv1, 72 h) was 200 to 500 nM and the IC50 (LNCaP) was 50 to 200 nM.
CCNC(=O)C[C@@H]1N=C(c2ccc(Cl)cc2)c2cc(OC)ccc2-n2c(C)nnc21 [I-BET-762, reference compound] showed an IC50 (22RV1; [3]) of over 500 nM and an IC50 (LNCaP) of over 500 nM.
